The source of these data is patent US8546565B2, “Quinazolinamide derivatives” (Merck Patent Gesellschaft, priority 2008, dated 2013).

For this assay, the target named is T1, Recombinant human HSP90a (Homo sapiens, UniProt P07900).
T1 construct: host or cells: E. coli
As to the kind of experiment: HSP90 radioligand filter binding test ([3H]17AAG competition). As to conditions: [3H]17AAG 0.08 μM, HSP90 1.5 μg/assay, 22° C., 30 min; read-out: IC50 (HSP90 inhibition). The text has this:
Test Method for the Measurement of HSP90 Inhibitors
The binding of geldanamycin or 17-allylamino-17-demethoxygeldanamycin (17AAG) to HSP90 and competitive inhibition thereof can be utilised in order to determine the inhibitory activity of the compounds according to the invention (Carreras et al. 2003, Chiosis et al. 2002).
In the specific case, a radioligand filter binding test is used. The radioligand used here is tritium-labelled 17-allylaminogeldanamycin, [3H]17AAG. This filter binding test allows a targeted search for inhibitors which interfere with the ATP binding site.
Recombinant human HSP90a (E. coli expressed, 95% purity);
[3H]17AAG (17-allylaminogeldanamycin, [allylamino-2,3-^3H. Specific activity: 1.11×10^12 Bq/mmol (Moravek, MT-1717);
HEPES filter buffer (50 mM HEPES, pH 7.0, 5 mM MgCl2, BSA 0.01%)
Multiscreen FB (1 μm) filter plate (Millipore, MAFBNOB 50).
The 96-well microtitre filter plates are firstly irrigated and coated with 0.1% of polyethylenimine.
The test is carried out under the following conditions:
Reaction temperature 22° C.
Reaction time: 30 min., shaking at 800 rpm
50 mM HEPES HCl, pH 7.0, 5 mM MgCl2, 0.01% (w/v) of BSA
At the end of the reaction, the supernatant in the filter plate is removed by suction with the aid of a vacuum manifold (Multiscreen Separation System, Millipore), and the filter is washed twice.
The filter plates are then measured in a beta counter (Microbeta, Wallac) with scintillator (Microscint 20, Packard).
“% of control” is determined from the “counts per minutes” values, and the IC-50 value of a compound is calculated therefrom.
Regarding `CCN(C)C(=O)c1ccccc1-c1ccc2nc(N)nc(C(=O)N3Cc4ccccc4C3)c2c1` [Compound A39], the IC50 lay within 0.01 to 1 µM.

`CCN(CC)C(=O)c1ccccc1-c1ccc2nc(N)nc(C(=O)N3Cc4ccccc4C3)c2c1` [Compound A40, 2-[2-Amino-4-(1,3-dihydroisoindole-2-carbonyl)quinazolin-6-yl]-N,N-diethylbenzamide]: the half-inhibitory concentration (IC50) fell in the range of 0.01 to 1 µM.

On to `CCNC(=O)c1ccccc1-c1ccc2nc(N)nc(C(=O)N3Cc4ccccc4C3)c2c1` [Compound A41, 2-[2-Amino-4-(1,3-dihydroisoindole-2-carbonyl)quinazolin-6-yl]-N-ethylbenzamide], for which the half-maximal inhibitory concentration (IC50) was in the range of 0.01 to 1 µM.

As to `CC1CCCN1C(=O)c1ccccc1-c1ccc2nc(N)nc(C(=O)N3Cc4ccccc4C3)c2c1` (centres unmarked) [Compound A42, {2-Amino-6-[2-(2-methylpyrrolidine-1-carbonyl)phenyl]quinazolin-4-yl}-(1,3-dihydroisoindol-2-yl)methanone], the concentration for half-maximal inhibition (IC50) is 0.01 to 1 µM.

In the case of `Nc1nc(C(=O)N2Cc3ccccc3C2)c2cc(-c3ccccc3C(=O)N3CCC(N)C3)ccc2n1` (centres unmarked) [Compound A43, {2-amino-6-[2-(3-aminopyrrolidine-1-carbonyl)phenyl]quinazolin-4-yl}-(1,3-dihydroisoindol-2-yl)methanone], the IC50 is 0.01 to 1 µM.

In the case of `Nc1nc(C(=O)N2Cc3ccccc3C2)c2cc(-c3ccccc3C(=O)N3CCCC3C(=O)O)ccc2n1` (centres unmarked) [Compound A44, 1-{2-[2-Amino-4-(1,3-dihydroisoindole-2-carbonyl)quinazolin-6-yl]-benzoyl}pyrrolidine-2-carboxylic acid], the IC50 was 0.01 to 1 µM.

On to `CCN(CC)S(=O)(=O)c1ccccc1-c1ccc2nc(N)nc(C(=O)N3Cc4ccccc4C3)c2c1` [Compound A45, 2-[2-Amino-4-(1,3-dihydroisoindole-2-carbonyl)quinazolin-6-yl]-N,N-diethylbenzenesulfonamide], for which the half-inhibitory concentration (IC50) was in the range of 0.01 to 1 µM.

For the molecule `Nc1nc(C(=O)N2Cc3ccccc3C2)c2cc(-c3ccccc3C(=O)NC3CCC3)ccc2n1` [Compound A46, 2-[2-Amino-4-(1,3-dihydroisoindole-2-carbonyl)quinazolin-6-yl]-N-cyclobutylbenzamide], the 50% inhibitory concentration (IC50) fell in the range of 0.01 to 1 µM.

Regarding `CC(C)(C)NC(=O)c1ccccc1-c1ccc2nc(N)nc(C(=O)N3Cc4ccccc4C3)c2c1` [Compound A47, 2-[2-Amino-4-(1,3-dihydroisoindole-2-carbonyl)quinazolin-6-yl]-N-tert-butylbenzamide], the concentration for half-maximal inhibition (IC50) is 0.01 to 1 µM.

In the case of `Nc1nc(C(=O)N2Cc3ccccc3C2)c2cc(-c3ccccc3C(=O)NC3CC3)ccc2n1` [Compound A48, 2-[2-Amino-4-(1,3-dihydroisoindole-2-carbonyl)quinazolin-6-yl]-N-cyclopropylbenzamide], the half-inhibitory concentration (IC50) was 0.01 to 1 µM.

For `Nc1nc(C(=O)N2Cc3ccccc3C2)c2cc(-c3ccccc3C(=O)N3CCC(F)(F)C3)ccc2n1` [Compound A49, {2-Amino-6-[2-(3,3-difluoropyrrolidine-1-carbonyl)phenyl]quinazolin-4-yl}-(1,3-dihydroisoindol-2-yl)methanone], the concentration for half-maximal inhibition (IC50) was in the range of 0.01 to 1 µM.

For `CNC(=O)C1CCCN1C(=O)c1ccccc1-c1ccc2nc(N)nc(C(=O)N3Cc4ccccc4C3)c2c1` (centres unmarked) [Compound A50, 1-{2-[2-amino-4-(1,3-dihydroisoindole-2-carbonyl)quinazolin-6-yl]benzoyl}pyrrolidine-2-methylamide], the IC50 lay in the range of 1 to 10 µM.

`Nc1nc(C(=O)N2Cc3ccccc3C2)c2cc(-c3ccccc3S(=O)(=O)NC3CCC3)ccc2n1` [Compound A51, 2-[2-Amino-4-(1,3-dihydroisoindole-2-carbonyl)quinazolin-6-yl]-N-cyclobutylbenzenesulfonamide]: the concentration for half-maximal inhibition (IC50) was 0.01 to 1 µM.

Consider `Nc1nc(C(=O)N2Cc3ccccc3C2)c2cc(-c3ccccc3S(=O)(=O)NC3CC3)ccc2n1` [Compound A52, 2-[2-Amino-4-(1,3-dihydroisoindole-2-carbonyl)quinazolin-6-yl]-N-cyclopropylbenzenesulfonamide], for which the concentration for half-maximal inhibition (IC50) was in the range of 0.01 to 1 µM.
